Values of other authors in patent US20090291974A1, “BOSENTAN SALTS” (priority 2008, published 2009).

Legend:
[1] = acidic and basic centers, overall value
[2] = not given; remark: listed apart in the source

Row | solubility in acetone (acetone) | solubility in dichloromethane (dichloromethane) | solubility in ethanol (ethanol) | solubility in ethyl acetate (ethyl acetate) | solubility in hexane (hexane) | solubility in isopropanol (isopropanol) | solubility in methanol (methanol) | overall pKa [1] | solubility in aqueous solution at pH 1.1 ([2]; aqueous solution, pH 1.1) | solubility in aqueous solution at pH 4.0 ([2]; aqueous solution, pH 4.0) | solubility in aqueous solution at pH 5.0 ([2]; aqueous solution, pH 5.0) | solubility in aqueous solution at pH 7.5 ([2]; aqueous solution, pH 7.5) | solubility in water ([2]; water) | Compound
1 | freely soluble | freely soluble | soluble | soluble | very slightly soluble | slightly soluble | slightly soluble |  |  |  |  |  |  | COc1ccccc1Oc1c(NS(=O)(=O)c2ccc(C(C)(C)C)cc2)nc(-c2ncccn2)nc1OCCO [Bosentan monohydrate, bosentan monohydrate]
2 |  |  |  |  |  |  |  | 5.46 | 0.1 mg/100 ml | 0.1 mg/100 ml | 0.2 mg/100 ml | 43 mg/100 ml | 1.0 mg/100 ml | COc1ccccc1Oc1c(NS(=O)(=O)c2ccc(C(C)(C)C)cc2)nc(-c2ncccn2)nc1OCCO [Bosentan]
